For one data set, the target named is T1, PI3K beta (Homo sapiens, UniProt P42338).
T1 construct: for the full-length p110-b subunit are generated and fused by overlapping PCR; His tag (C); made in house; host or cells: baculovirus BV949; Tn5 (Trichoplusia ni) or TiniPro insect cells
The data set is described as follows: PI3K beta kinase assay (Kinase-Glo luminescence). The format is biochemical. The conditions noted are these: read-out: PI3Kbeta/IC50. How it is done: In a more preferred assay, the kinase reaction is performed in a final volume of 10 μL per well of a low volume non binding CORNING, 384 well black plate (Cat. No. #3676). The final concentrations of ATP and phosphatidyl inositol (PI) in the assay are 1 μM and 10 μg/mL respectively. The reaction is started by the addition of ATP.
The components of the assay are added per well as follows:
50 nL test compounds in 90% DMSO per well, in columns 1-20, 8 concentrations (⅓ and 1/3.33 serial dilution step) in single. • Low control: […] of 90% DMSO in half the wells of columns 23-24 (0.45% in final). • High control: 50 nL of reference compound (e.g. compound of Example 7 in WO 2006/122806) in the other half of columns 23-24 (2.5 μM in final). • Standard: 50 nL of reference compound as just mentioned diluted as the test compounds in columns 21-22 • 20 mL ‘buffer’ are prepared per assay: • 200 μL of 1M TRIS HCl pH7.5 (10 mM in final) • 60 μL of 1M MgCl2 (3 mM in final) • 500 μL of 2M NaCl (50 mM in final) • 100 μL of 10% CHAPS (0.05% in final) • 200 μL of 100 mM DTT (1 mM in final) • 18.94 mL of nanopure water • 10 mL ‘PI’ are prepared per assay: • 200 μL of 1 mg/ml L-alpha-Phosphatidylinositol (Liver Bovine, Avanti Polar Lipids Cat. No. 840042C MW=909.12) prepared in 3% OctylGlucoside (10 μg/ml in final) • 9.8 mL of ‘buffer’ • 10 mL ‘ATP’ are prepared per assay: • 6.7 μL of 3 mM stock of ATP giving a final concentration of 1 μM per well • 10 mL of ‘buffer’ • 2.5 mL of each PI3K construct are prepared per assay in ‘PI’ with the following final concentration: • 10 nM PI3K alfa EMV B1075 • 25 nM beta EMV BV949 • 10 nM delta EMV BV1060 • 150 nM gamma EMV BV950 • 5 μL of ‘PI/PI3K’ are added per well. • 5 μl ‘ATP’ are added per well to start the reaction. • The plates are then incubated at room temperature for 60 minutes (alfa, beta, delta) or 120 minutes (gamma). • The reaction is terminated by the addition of 10 μL Kinase-Glo (Promega Cat. No. #6714). • The assay plates are read after 10 minutes in Synergy 2 reader (BioTek, Vermont USA) with an integration time of 100 milliseconds and sensitivity set to 191. • Output: The High control is around 60′000 counts and the Low control is 30′000 or lower • This luminescence assay gives a useful Z′ ratio between 0.4 and 0.7
PI3Kβ BV-949 p85(iSH2)-Gly linker-r 110b(full-length)-C-term His Tag
PI3K beta is purified in two chromatographic steps: immobilized metal affinity chromatography (IMAC) on a Ni Sepharose resin (GE Healthcare) and gel filtration (GFC) utilizing a Superdex 200 26/60 column (GE Healthcare). All buffers are chilled to 4° C. and lysis is performed chilled on ice. Column fractionation is performed rapidly at room temperature.
IC50 is determined by a four parameter curve fitting routine that comes along with “excel fit”. A 4 Parameter logistic equation is used to calculate IC50 values (IDBS XLfit) of the percentage inhibition of each compound at 8 concentrations (usually 10, 3.0, 1.0, 0.3, 0.1, 0.030, 0.010 and 0.003 μM). Alternatively, IC50 values are calculated using idbsXLfit model 204, which is a 4 parameter logistic model.

Data set [1] is described as follows: High-throughput equilibrium solubility at pH 6.8. The format is physicochemical. The note with it: pH 6.8, aqueous buffer, thermodynamic from solid; read-out: HT-Eq Sol/pH 6.8. The source says: The physicochemical properties of relevance for the absorption of the compound, such as the solubility and the membrane permeability, especially at a pH close to neutral pH can be measured using the procedure as described by L. ZHOU et al. in JOURNAL OF PHARMACEUTICAL SCIENCES, VOL. 96, NO. 11, p. 3052-3071 (2007) for the solubility at pH 6.8 and the procedure as described by F. Wohnsland and B. Faller in Journal of Medicinal Chemistry Vol 44, p. 923-930 (2001) for the Parallel Artificial Membrane Permeability Assay (PAMPA) at pH 6.8.

Converted amounts (≈) assume the structure as drawn.

T1 sequence (P42338 with tags, fused parts or gaps limits assumed): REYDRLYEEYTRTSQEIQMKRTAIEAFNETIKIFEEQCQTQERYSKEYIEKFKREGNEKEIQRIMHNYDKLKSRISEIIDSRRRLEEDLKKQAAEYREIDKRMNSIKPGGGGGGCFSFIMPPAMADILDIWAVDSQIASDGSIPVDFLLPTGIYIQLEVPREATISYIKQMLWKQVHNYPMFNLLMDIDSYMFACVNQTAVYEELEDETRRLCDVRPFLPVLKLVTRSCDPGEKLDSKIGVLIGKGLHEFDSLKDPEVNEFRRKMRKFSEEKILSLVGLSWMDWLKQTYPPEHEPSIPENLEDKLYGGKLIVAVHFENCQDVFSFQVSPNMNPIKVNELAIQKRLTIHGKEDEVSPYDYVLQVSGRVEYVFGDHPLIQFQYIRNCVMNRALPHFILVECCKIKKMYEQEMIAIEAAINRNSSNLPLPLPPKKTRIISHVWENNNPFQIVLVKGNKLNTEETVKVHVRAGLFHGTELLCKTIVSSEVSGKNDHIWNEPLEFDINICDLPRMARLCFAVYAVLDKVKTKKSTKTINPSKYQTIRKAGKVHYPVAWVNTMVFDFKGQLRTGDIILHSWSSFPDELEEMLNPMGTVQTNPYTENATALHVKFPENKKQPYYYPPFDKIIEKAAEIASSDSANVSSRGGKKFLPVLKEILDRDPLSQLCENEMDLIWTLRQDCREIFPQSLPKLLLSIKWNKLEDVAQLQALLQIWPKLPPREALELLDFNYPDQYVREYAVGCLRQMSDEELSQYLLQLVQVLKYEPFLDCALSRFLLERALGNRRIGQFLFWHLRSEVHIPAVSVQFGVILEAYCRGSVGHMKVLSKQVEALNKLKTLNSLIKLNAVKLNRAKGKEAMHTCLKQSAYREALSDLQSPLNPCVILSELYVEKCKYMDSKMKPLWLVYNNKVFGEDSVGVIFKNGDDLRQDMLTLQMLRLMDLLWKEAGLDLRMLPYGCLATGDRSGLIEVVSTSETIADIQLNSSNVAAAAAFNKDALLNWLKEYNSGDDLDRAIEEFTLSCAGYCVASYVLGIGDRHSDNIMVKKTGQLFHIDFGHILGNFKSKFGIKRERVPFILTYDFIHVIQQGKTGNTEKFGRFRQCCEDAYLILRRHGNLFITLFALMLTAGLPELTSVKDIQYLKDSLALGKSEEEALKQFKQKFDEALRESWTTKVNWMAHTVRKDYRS

In the case of `COc1ncccc1-n1c(=O)n(C)c2cnc3ccc(-c4cnc5[nH]ccc5c4)cc3c21` [Example 1.2, 1-(2-Methoxy-pyridin-3-yl)-3-methyl-8-(1H-pyrrolo[2,3-b]pyridin-5-yl)-1,3-dihydro-imidazo[4,5-c]quinolin-2-one], at PI3K beta, the IC50 was found to be 115 nM. In data set [1], the solubility thermodynamic was determined as 3 µg/mL (≈ 7.1 µM).

For the compound `COc1ncccc1-n1c(=O)n(C)c2cnc3ccc(-c4ccc(C(N)=O)cc4)cc3c21` [Example 1.6, 4-[1-(2-Methoxy-pyridin-3-yl)-3-methyl-2-oxo-2,3-dihydro-1H-imidazo[4,5-c]quinolin-8-yl]-benzamide], the IC50 on PI3K beta came to 491 nM. Also, the solubility thermodynamic in data set [1] turned out to be 2 µg/mL (≈ 4.7 µM).

As to `Cc1ncccc1-n1c(=O)n(C)c2cnc3ccc(-c4ccc(C(N)=O)cc4)cc3c21` [Example 2.3, 4-[3-Methyl-1-(2-methyl-pyridin-3-yl)-2-oxo-2,3-dihydro-1H-imidazo[4,5-c]quinolin-8-yl]-benzamide], at PI3K beta, the IC50 worked out at 577 nM. Further, in data set [1], the solubility thermodynamic was found to be 15 µg/mL (≈ 36.6 µM).

Regarding `CCOc1ncc(-c2ccc3ncc4c(c3c2)n(-c2cccnc2C)c(=O)n4C)cn1` [Example 2.5, 8-(2-Ethoxy-pyrimidin-5-yl)-3-methyl-1-(2-methyl-pyridin-3-yl)-1,3-dihydro-imidazo[4,5-c]quinolin-2-one], on PI3K beta, the IC50 stood at 749 nM. For the same compound, in data set [1], the solubility thermodynamic came to 48 µg/mL (≈ 116 µM).

In the case of `Cc1ncccc1-n1c(=O)n(C)c2cnc3ccc(-c4ccc(CO)nc4)cc3c21` [Example 2.6, 8-(6-Hydroxymethyl-pyridin-3-yl)-3-methyl-1-(2-methyl-pyridin-3-yl)-1,3-dihydro-imidazo[4,5-c]quinolin-2-one], the IC50 at PI3K beta was 706 nM. Further, the solubility thermodynamic in data set [1] turned out to be 125 µg/mL (≈ 315 µM).

Consider `Cc1ncccc1-n1c(=O)n(C)c2cnc3ccc(-c4ccc(N)nc4)cc3c21` [Example 2.7, 8-(6-Amino-pyridin-3-yl)-3-methyl-1-(2-methyl-pyridin-3-yl)-1,3-dihydro-imidazo[4,5-c]quinolin-2-one], for which the IC50 on PI3K beta was determined as 133 nM. Also, the solubility thermodynamic in data set [1] is 17 µg/mL (≈ 44.5 µM).

Regarding `COc1ccc(-c2ccc3ncc4c(c3c2)n(-c2cccnc2C)c(=O)n4C)cc1OC` [Example 2.9, 8-(3,4-Dimethoxy-phenyl)-3-methyl-1-(2-methyl-pyridin-3-yl)-1,3-dihydro-imidazo[4,5-c]quinolin-2-one], the IC50 at PI3K beta was 77 nM. For the same compound, the solubility thermodynamic in data set [1] amounted to 12 µg/mL (≈ 28.1 µM).

With `Cc1ncccc1-n1c(=O)n(C)c2cnc3ccc(-c4ccc(OCCCN(C)C)nc4)cc3c21` [Example 2.10, 8-[6-(3-Dimethylamino-propoxy)-pyridin-3-yl]-3-methyl-1-(2-methyl-pyridin-3-yl)-1,3-dihydro-imidazo[4,5-c]quinolin-2-one], in data set [1], the solubility thermodynamic was over 469 µg/mL.

In the case of `Cc1ncccc1-n1c(=O)n(C)c2cnc3ccc(-c4cnc(N)c(C(F)(F)F)c4)cc3c21` [Example 2.11, 8-(6-Amino-5-trifluoromethyl-pyridin-3-yl)-3-methyl-1-(2-methyl-pyridin-3-yl)-1,3-dihydro-imidazo[4,5-c]quinolin-2-one], the IC50 at PI3K beta came to 14 nM. In addition, the solubility thermodynamic in data set [1] was found to be 13 µg/mL (≈ 28.9 µM).

For `COc1ccc(-c2ccc3ncc4c(c3c2)n(-c2cccnc2C)c(=O)n4C)cn1` [Example 2.12, 8-(6-Methoxy-pyridin-3-yl)-3-methyl-1-(2-methyl-pyridin-3-yl)-1,3-dihydro-imidazo[4,5-c]quinolin-2-one], at PI3K beta, the IC50 is 132 nM. The solubility thermodynamic in data set [1] was 27 µg/mL (≈ 67.9 µM).

For the compound `CCOc1ncc(-c2ccc3ncc4c(c3c2)n(-c2ncccc2C)c(=O)n4C)cn1` [Example 3.1, 8-(2-Ethoxy-pyrimidin-5-yl)-3-methyl-1-(3-methyl-pyridin-2-yl)-1,3-dihydro-imidazo[4,5-c]quinolin-2-one], in data set [1], the solubility thermodynamic came out at 39 µg/mL (≈ 94.6 µM).

Consider `Cc1cccnc1-n1c(=O)n(C)c2cnc3ccc(-c4ccc(C(N)=O)cc4)cc3c21` [Example 3.3, 4-[3-Methyl-1-(3-methyl-pyridin-2-yl)-2-oxo-2,3-dihydro-1H-imidazo[4,5-c]quinolin-8-yl]-benzamide], for which the solubility thermodynamic in data set [1] worked out at 5 µg/mL (≈ 12.2 µM).

For `CNc1ncc(-c2ccc3ncc4c(c3c2)n(-c2ncccc2C)c(=O)n4C)cn1` [Example 3.4, 3-Methyl-8-(2-methylamino-pyrimidin-5-yl)-1-(3-methyl-pyridin-2-yl)-1,3-dihydro-imidazo[4,5-c]quinolin-2-one], the solubility thermodynamic in data set [1] came out at 11 µg/mL (≈ 27.7 µM).

`CNC(=O)c1ccc(-c2ccc3ncc4c(c3c2)n(-c2ncccc2C)c(=O)n4C)cc1` [Example 3.5, N-Methyl-4-[3-methyl-1-(3-methyl-pyridin-2-yl)-2-oxo-2,3-dihydro-1H-imidazo[4,5-c]quinolin-8-yl]-benzamide]: the solubility thermodynamic in data set [1] turned out to be 10 µg/mL (≈ 23.6 µM).

`CCOc1ccc(-c2ccc3ncc4c(c3c2)n(-c2ncccc2C)c(=O)n4C)cn1` [Example 3.6, 8-(6-Ethoxy-pyridin-3-yl)-3-methyl-1-(3-methyl-pyridin-2-yl)-1,3-dihydro-imidazo[4,5-c]quinolin-2-one]: the solubility thermodynamic in data set [1] came out at 20 µg/mL (≈ 48.6 µM).

As to `Cc1cccnc1-n1c(=O)n(C)c2cnc3ccc(-c4ccc(CO)nc4)cc3c21` [Example 3.9, 8-(6-Hydroxymethyl-pyridin-3-yl)-3-methyl-1-(3-methyl-pyridin-2-yl)-1,3-dihydro-imidazo[4,5-c]quinolin-2-one], the solubility thermodynamic in data set [1] was over 397 µg/mL.

Regarding `COc1ccc(-c2ccc3ncc4c(c3c2)n(-c2ncccc2C)c(=O)n4C)cc1OC` [Example 3.10, 8-(3,4-Dimethoxy-phenyl)-3-methyl-1-(3-methyl-pyridin-2-yl)-1,3-dihydro-imidazo[4,5-c]quinolin-2-one], in data set [1], the solubility thermodynamic stood at 195 µg/mL (≈ 457 µM).

In the case of `Cc1cccnc1-n1c(=O)n(C)c2cnc3ccc(-c4ccc(N(C)C)nc4)cc3c21` [Example 3.11, 8-(6-Dimethylamino-pyridin-3-yl)-3-methyl-1-(3-methyl-pyridin-2-yl)-1,3-dihydro-imidazo[4,5-c]quinolin-2-one], in data set [1], the solubility thermodynamic is 39 µg/mL (≈ 95 µM).

Consider `Cc1ccncc1-n1c(=O)n(C)c2cnc3ccc(-c4ccc(CO)nc4)cc3c21` [Example 4.1, 8-(6-Hydroxymethyl-pyridin-3-yl)-3-methyl-1-(4-methyl-pyridin-3-yl)-1,3-dihydro-imidazo[4,5-c]quinolin-2-one], for which, in data set [1], the solubility thermodynamic stood at 75 µg/mL (≈ 189 µM).

`CCOc1ccc(-c2ccc3ncc4c(c3c2)n(-c2cnccc2C)c(=O)n4C)cn1` [Example 4.2, 8-(6-Ethoxy-pyridin-3-yl)-3-methyl-1-(4-methyl-pyridin-3-yl)-1,3-dihydro-imidazo[4,5-c]quinolin-2-one]: in data set [1], the solubility thermodynamic is 50 µg/mL (≈ 122 µM).

As to `CN(C)c1ccc(-c2ccc3ncc4c(c3c2)n(-c2cccnc2)c(=O)n4C)cn1` [Example 5.3, 8-(6-Dimethylamino-pyridin-3-yl)-3-methyl-1-pyridin-3-yl-1,3-dihydro-imidazo[4,5-c]quinolin-2-one], the solubility thermodynamic in data set [1] was 4 µg/mL (≈ 10.1 µM).

The values above are taken from US20100311714A1, “1H-IMIDAZO[4,5-c]QUINOLINONE COMPOUNDS” (priority 2009, published 2010).
